Measured values reported in paper PMC9143054 (Journal of Personalized Medicine, 2022).
Like-named read-outs stand apart in the source and are kept apart here.

Tests used:
[1] = Adverse drug events attributable to acetaminophen in the study participants; format: in vivo, human; settings: single 1 g iv dose, ICU patients
[2] = cited from earlier work
[3] = Acetaminophen pharmacokinetics after 1 g intravenous infusion (serum LC-MS/MS, noncompartmental analysis); format: in vivo, human
Protocol: Serum samples were collected every 30 min starting from the administration until 6 h after the treatment was initiated and immediately frozen at −80 °C until analysis. […] The protocol also included the collection of whole blood samples for genetic analyses.
The samples were mixed for 15 s and kept on ice for 20 min. Then, the samples were centrifuged for 10 min at 3000× g, at 4 °C. The supernatant (750 μL) was evaporated under a nitrogen stream. Then, the samples were resuspended in 40 μL of a mixture containing water ([…]), methanol (2.5%), and formic acid (0.1%). […] The column temperature was set at 20 °C. The flow rate was 0.2 mL/min, and the mobile phase consisted of the following gradient: Mobile phase A: 0.1% formic acid in water; Mobile phase B: 0.1 formic acid in methanol. The elution was started with a proportion of 97.5% A:2.5% B. A linear gradient increase from 2.5% to 65%B over 0.6 min was used, and then, the mobile phase reversed to initial conditions. The mass spectrometer was operated in positive electrospray ionization using multiple reaction monitoring (MRM). The source was set at 500 °C and 5.5 kV. […] Pharmacokinetic analyses were carried out by use of WinNonlin® V5.3 (Pharsight Corporation, St. Louis, MO, USA). The pharmacokinetic model chosen to calculate all parameters was noncompartmental with intravenous infusion. Untransformed data were used for all analyses.

[4] = UGT1A6*2/*2 diplotype vs UGT1A6*1/*1
[5] = UGT1A6*2/*4 diplotype vs UGT1A6*1/*1
[6] = concomitant drug therapy: Other (Inhibitors + Inducers) (n = 1), single patient, 1 g iv
[7] = human, serum, concomitant drug therapy: Other (Inhibitors + Inducers) (n = 1), single patient, 1 g iv

CC(=O)Nc1ccc(O)cc1 [Acetaminophen]
adverse drug events attributable to acetaminophen [1]: None of the participants developed adverse drug events
fraction of acetaminophen metabolized in vivo [2]: about 90%
acetaminophen glucuronides as share of the metabolites recovered in urine ([2]; urine): about half
acetaminophen glucuronides as share of the urine metabolites ([2]; urine): more than 50%
effect of UGT1A9 genotypes (UGT1A9*1/*3, *3/*3) on pharmacokinetics ([3]; 65 individuals without UGT1A6 variants, Supplementary Table S5): No major differences
pharmacokinetics in individuals who required on-demand opiates vs those who did not ([3]; Supplementary Table S6): No significant differences
increase in drug exposure (AUMC) [3, 4]: 66%
increase in t1/2 values [3, 4]: 38%
increase in drug exposure (AUMC) [3, 5]: 76%
increase in t1/2 values [3, 5]: 31%
K10 [3, 6]: 0.45; - 1/h
V (volume of distribution) [3, 6]: 299.16; - mg/(ug/mL)
Vss [3, 6]: 299.16; - mg/(ug/mL)
increase in t1/2 values ([3]; homozygous or double heterozygous for variant UGT1A6 alleles vs UGT1A6*1/*1): 22.5%
half-life ([3]; human, serum, intravenous, 1 g, whole study group, from less than 0.5 h up to more than 3.5 h, read-out: half-life (t1/2) values, range across individuals): 0.5 to 3.5 h
AUC(0-inf) [3, 7]: 7440 ng·h/mL
AUC(0-t) [3, 7]: 6660 ng·h/mL
C0 [3, 7]: 3340 ng/mL
MRT [3, 7]: 2.23 h
half-life ([3]; human, serum, concomitant drug therapy: Other (Inhibitors + Inducers) (n = 1), single patient, 1 g iv, read-out: t1/2 (converted)): 1.54 h
